Experimental data reported in US8541029B2, “Article and method for focused delivery of therapeutic and/or diagnostic materials” (Armark Authentication Technologies, LLC, priority 2006, dated 2013).

Test: Isolated temperature response of component materials to microwave RF
Assay type: physicochemical
Conditions: 130 Watts for 60 seconds; for P1 60 seconds ° F.: initial 68 ° F.
Protocol: The microcells were suspended as an aqueous sample while exposed to microwave RF. Both water and mineral oil were evaluated as a liquid medium to expose microcell samples. 500 milligram samples of each microcell component were dispersed in both water and mineral oil and exposed to 130 watts of microwave RF for 60 seconds to determine the preferred fluid medium to carry out the experiment.
Microwave RF exposure was performed in a Panasonic 1300 Watt Inverter Technology® Microwave Oven Model NN-SN667W at 130 Watts. The oven was retrofitted with all quartz platforms to reduce/eliminate dipole induction heating from standard glass structures. All containment and experimental material other than water or albumen in contact with the experimental samples was microwave transparent. Containment devices such as test tubes, slides, and cover slips were either quartz or microwave transparent plastics. Microwave oven use was limited to less than 90 minutes per test period to reduce/prevent incidental heating of the oven chamber. A 500 milliliter water “reservoir-load” was maintained within the oven chamber to absorb microwave energy and prevent magnetron damage. All tests were run in an environmentally-controlled room at about 65° F. (about 18.3° C.) and 50% RH.

ΔT ° F. (500 mg in 10 g Mineral Oil): 0 ° F.
P1 60 seconds ° F. (500 mg in 10 g Mineral Oil): 68 ° F.
ΔT ° F. (500 mg in 10 g Water): 22 ° F.
P1 60 seconds ° F. (500 mg in 10 g Water): 90 ° F.
Compound: CC(=O)Nc1ccc(O)cc1 [Acetaminophen, acetaminophen]
